Measurements: publication PMC9928118, “Funneling modulatory peptide design with generative models: Discovery and characterization of disruptors of calcineurin protein-protein interactions” (PLOS Computational Biology, 2023)
Blank lines part the entries; values can stand above or below the sequence they belong to.

System: GST-tagged Cn
Test: PEPperPRINT peptide microarray binding assay with GST-tagged Cn
How it was run: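 Qualitative binding: peptides printed on a PEPperPRINT microarray were incubated overnight at 4 °C with 1 mg/ml GST-tagged Cn, then detected with Alexa-Fluor 647 anti-GST antibody. Log fluorescence was baseline-corrected, averaged over duplicate spots, Z-normalized and averaged across five repeats.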

[1] = max over the chip locations listed for the peptide (two spots)
[2] = mean over the chip locations listed for the peptide (two spots)
[3] = GST-tagged Cn, max over the chip locations
[4] = GST-tagged Cn, mean over the chip locations
[5] = GST-tagged Cn, max over the chip spots listed under Location on chip
[6] = GST-tagged Cn, mean over the chip spots listed under Location on chip
[7] = GST-tagged Cn, max over the spots on the chip (two locations)
[8] = GST-tagged Cn, mean over the spots on the chip (two locations)
[9] = GST-tagged Cn, max over the spots named in Location on chip
[10] = GST-tagged Cn, mean over the spots named in Location on chip
[11] = max over the spots listed under Location on chip
[12] = mean over the spots listed under Location on chip

Chip Fluorescence (max) [1]: 3.709
Chip Fluorescence (mean) [2]: 0.2678
Sequence: QRFFCVRYDVNPCINW [Seqrandom_9944]

Chip Fluorescence (max) [1]: 7.93
Chip Fluorescence (mean) [2]: 2.436
Sequence: QSNSTPTITITPPSDA [SeqRBM_9156]

Chip Fluorescence (max) [1]: 10.3742
Chip Fluorescence (mean) [2]: 0.3512
Sequence: QSQSNPEITVTPPETE [SeqRIPOR2_Austrofundulus_limnaeus]

Chip Fluorescence (max) [3]: -0.7515
Chip Fluorescence (mean) [4]: -1.165
Sequence: QSRSCSHPNRSPERVT [SeqRBM_5791]

Chip Fluorescence (max) [5]: 0.5479
Chip Fluorescence (mean) [6]: -0.783
Sequence: QTEDQPGIIVHTAMLP [SeqRCN1_Bactrocera_dorsalis]

Chip Fluorescence (max) [7]: 1.036
Chip Fluorescence (mean) [8]: -0.9088
Sequence: QTSCLPFPVVNSQEGQ [SeqRBM_2540]

Chip Fluorescence (max) [5]: 0.8878
Chip Fluorescence (mean) [6]: -0.5817
Sequence: QYAYNSQMMGITTQLQ [Seqshuffled_9335]

Chip Fluorescence (max) [7]: 1.034
Chip Fluorescence (mean) [8]: 0.3693
Sequence: RAMRILKCCPHPAAWN [Seqrandom_9981]

Sequence: RAYINPFMMFRSGGNK [SeqSFB3_Cordyceps_militaris]
Chip Fluorescence (max) [5]: 0.6899
Chip Fluorescence (mean) [6]: -0.6148

Chip Fluorescence (max) [5]: 0.6841
Chip Fluorescence (mean) [6]: -0.1666
Sequence: RAYINPFMQFIDGGRF [SeqRBMlowT_3663]

Chip Fluorescence (max) [1]: 3.668
Chip Fluorescence (mean) [2]: 2.003
Sequence: RAYINPFMQFIDGGRK [SeqRBMlowT_4070]

Chip Fluorescence (max) [9]: 1.802
Chip Fluorescence (mean) [10]: -0.3387
Sequence: RAYINPFMQFIDGGRR [SeqRBMlowT_1520]

Chip Fluorescence (max) [7]: 1.138
Chip Fluorescence (mean) [8]: 0.2992
Sequence: RAYINPFMQFNDGGSR [SeqRBM_9542]

Sequence: RAYINPFMQFQDGGQR [SeqRBMlowT_1515]
Chip Fluorescence (max) [9]: 1.533
Chip Fluorescence (mean) [10]: -0.1627

Chip Fluorescence (max) [11]: 2.865
Chip Fluorescence (mean) [12]: 0.3097
Sequence: RAYINPFMQFQIGGNH [SeqRBMlowT_4074]

Chip Fluorescence (max) [5]: 0.7684
Chip Fluorescence (mean) [6]: -0.05563
Sequence: RAYINPFMQFTDDGRR [SeqRBMlowT_7881]

Chip Fluorescence (max) [7]: 1.3045
Chip Fluorescence (mean) [8]: 0.5135
Sequence: RAYINPFMQFTDGGRR [SeqRBMlowT_4069]

Chip Fluorescence (max) [1]: 3.708
Chip Fluorescence (mean) [2]: 0.9074
Sequence: RAYINPFMTFIDGGHR [SeqRBMlowT_1519]

Chip Fluorescence (max) [11]: 3.064
Chip Fluorescence (mean) [12]: 0.978
Sequence: RAYINPFMTFTDGGRR [SeqRBMlowT_3400]

Chip Fluorescence (max) [5]: 0.9031
Chip Fluorescence (mean) [6]: 0.1441
Sequence: RAYINPHMFFKFDGHK [SeqRBM_1639]

Chip Fluorescence (max) [9]: 1.378
Chip Fluorescence (mean) [10]: 0.8819
Sequence: RAYMNPFMTFIDGGHR [SeqRBMlowT_1518]

Chip Fluorescence (max) [1]: 3.463
Chip Fluorescence (mean) [2]: 0.1448
Sequence: RCISAYKLDSVMMDPS [Seqrandom_9957]

Chip Fluorescence (max) [9]: 1.816
Chip Fluorescence (mean) [10]: 0.8874
Sequence: REPGVPPLELKGHLSL [SeqRBM_7171]

Chip Fluorescence (max) [9]: 1.764
Chip Fluorescence (mean) [10]: -0.3424
Sequence: REYINPKMHFHFLNTV [SeqRBM_9087]

Chip Fluorescence (max) [5]: 0.42
Chip Fluorescence (mean) [6]: -0.6398
Sequence: RFRTELSFGFTGFGTD [Seqshuffled_9528]

Chip Fluorescence (max) [1]: 4.744
Chip Fluorescence (mean) [2]: 1.033
Sequence: RKDSAVTQWGFSNLWA [Seqrandom_9950]

Chip Fluorescence (max) [1]: 4.044
Chip Fluorescence (mean) [2]: 1.1677
Sequence: RLFSVCEQEEEIERAP [Seqshuffled_9643]

Chip Fluorescence (max) [1]: 6.671
Chip Fluorescence (mean) [2]: 1.748
Sequence: RMMEPQNRGFKGCTES [Seqshuffled_509]

Chip Fluorescence (max) [7]: 1.316
Chip Fluorescence (mean) [8]: -0.7354
Sequence: RNPERPKLHLQGHLVA [SeqRBM_9016]

Chip Fluorescence (max) [11]: 3.012
Chip Fluorescence (mean) [12]: 0.475
Sequence: RNPESPSLFLEGHLSR [SeqRBMlowT_8778]

Chip Fluorescence (max) [7]: 1.2142
Chip Fluorescence (mean) [8]: 0.3008
Sequence: RNPGIALLSLRGHKAQ [SeqRBMlowT_8792]

Chip Fluorescence (max) [7]: 1.17
Chip Fluorescence (mean) [8]: -0.1022
Sequence: RNPGQALLELKGHSAQ [SeqRBMlowT_7734]

Chip Fluorescence (max) [5]: 0.4069
Chip Fluorescence (mean) [6]: -0.3301
Sequence: RNPGQALLELRGHSAS [SeqRBMlowT_6125]

Chip Fluorescence (max) [3]: 0.09132
Chip Fluorescence (mean) [4]: -0.8885
Sequence: RNPGQALLQLSGHKAP [SeqRBM_8761]

Chip Fluorescence (max) [5]: 0.6524
Chip Fluorescence (mean) [6]: -0.2838
Sequence: RNPGQALLTLEGHSAS [SeqRBMlowT_5868]

Chip Fluorescence (max) [3]: -0.7814
Chip Fluorescence (mean) [4]: -1.225
Sequence: RNPGQALLTLRGHKAQ [SeqRBMlowT_5824]

Chip Fluorescence (max) [5]: 0.3829
Chip Fluorescence (mean) [6]: -0.6837
Sequence: RNPGQALLTLRGHKAS [SeqRBMlowT_7787]

Chip Fluorescence (max) [7]: 1.2153
Chip Fluorescence (mean) [8]: 0.1411
Sequence: RNPGQALLTLRGHKKQ [SeqRBMlowT_5826]

Chip Fluorescence (max) [5]: 0.6321
Chip Fluorescence (mean) [6]: -0.2233
Sequence: RNPGQALLTLRGHSAS [SeqRBMlowT_5835]

Chip Fluorescence (max) [9]: 1.609
Chip Fluorescence (mean) [10]: 0.3772
Sequence: RNPGQALLTLRGHSKQ [SeqRBMlowT_6189]

Chip Fluorescence (max) [1]: 5.135
Chip Fluorescence (mean) [2]: 0.4912
Sequence: RNPGQPLLELEGHSAP [SeqRBMlowT_7742]

Chip Fluorescence (max) [7]: 1.159
Chip Fluorescence (mean) [8]: -0.3352
Sequence: RNPGSPTLELNGHSGG [SeqRBM_9695]

Chip Fluorescence (max) [3]: -0.1475
Chip Fluorescence (mean) [4]: -0.4043
Sequence: RNPGSPVLELEGHSAS [SeqRBMlowT_6392]

Chip Fluorescence (max) [7]: 1.174
Chip Fluorescence (mean) [8]: 0.5723
Sequence: RNPGTALLELRGHKAS [SeqRBMlowT_6384]

Chip Fluorescence (max) [11]: 2.68
Chip Fluorescence (mean) [12]: 1.087
Sequence: RNPGTALLELRGHSAS [SeqRBMlowT_6200]

Chip Fluorescence (max) [3]: 0.05866
Chip Fluorescence (mean) [4]: -0.8616
Sequence: RNPGTALLTLRGHKKQ [SeqRBMlowT_5859]

Chip Fluorescence (max) [11]: 2.7668
Chip Fluorescence (mean) [12]: 0.4787
Sequence: RNPGTAPLTLKGHKKQ [SeqRBMlowT_6124]

Chip Fluorescence (max) [11]: 3.224
Chip Fluorescence (mean) [12]: 1.049
Sequence: RNPGTFPLELEGHKKQ [SeqRBMlowT_8768]

Chip Fluorescence (max) [7]: 1.229
Chip Fluorescence (mean) [8]: -0.4106
Sequence: RNPGTFPLTLEGHKKQ [SeqRBMlowT_6333]

Chip Fluorescence (max) [3]: -0.2859
Chip Fluorescence (mean) [4]: -0.9089
Sequence: RNPGTPLLELKGHAAS [SeqRBMlowT_8729]

Chip Fluorescence (max) [3]: -0.2579
Chip Fluorescence (mean) [4]: -0.9244
Sequence: RNYINPQAQFTYDSGA [SeqRBM_6031]

Chip Fluorescence (max) [11]: 3.288
Chip Fluorescence (mean) [12]: -1.788
Sequence: RQGAGPILVLEGHWDA [SeqRBM_4400]

Chip Fluorescence (max) [1]: 4.952
Chip Fluorescence (mean) [2]: 0.4575
Sequence: RQPGQALLELKGHAGA [SeqYPL247C_Erysiphe_pulchra]

Chip Fluorescence (max) [9]: 1.5016
Chip Fluorescence (mean) [10]: 0.5912
Sequence: RQPGQALLTLRGHKKQ [SeqRBMlowT_5816]

Chip Fluorescence (max) [9]: 1.328
Chip Fluorescence (mean) [10]: -0.3044
Sequence: RQPGQALLTLRGHSAP [SeqRBMlowT_5806]

Chip Fluorescence (max) [5]: 0.727
Chip Fluorescence (mean) [6]: -0.3106
Sequence: RQPGQALLTLRGHSAS [SeqRBMlowT_5869]

Chip Fluorescence (max) [11]: 2.813
Chip Fluorescence (mean) [12]: 0.6175
Sequence: RQPGQALLTLRGHSKS [SeqRBMlowT_7741]

Sequence: RQPGTALLELGGHKKQ [SeqRBMlowT_7758]
Chip Fluorescence (max) [7]: 1.043
Chip Fluorescence (mean) [8]: 0.136

Chip Fluorescence (max) [9]: 1.524
Chip Fluorescence (mean) [10]: 0.2674
Sequence: RQPGTALLTLRGHKKQ [SeqRBMlowT_5805]

Chip Fluorescence (max) [5]: 0.7504
Chip Fluorescence (mean) [6]: -0.5221
Sequence: RQPGTAPANLVGHKKQ [SeqRBM_2906]

Chip Fluorescence (max) [5]: 0.9861
Chip Fluorescence (mean) [6]: 0.123
Sequence: RQPGTFLLTLRGHKKQ [SeqRBMlowT_6149]

Chip Fluorescence (max) [5]: 0.7712
Chip Fluorescence (mean) [6]: -0.3628
Sequence: RQPGTLGLTLEGHSNS [SeqRBM_7786]

Chip Fluorescence (max) [7]: 1.326
Chip Fluorescence (mean) [8]: -0.7748
Sequence: RSPGTFPLELSGHKKQ [SeqRBMlowT_6356]

Chip Fluorescence (max) [1]: 4.515
Chip Fluorescence (mean) [2]: 0.06008
Sequence: RSYDVPVFLFTYLPNP [SeqRBM_7048]

Sequence: RSYINPFVTFLDHGHR [SeqSFB3_Blumeria_graminis]
Chip Fluorescence (max) [5]: 0.7568
Chip Fluorescence (mean) [6]: -0.5098

Chip Fluorescence (max) [9]: 1.532
Chip Fluorescence (mean) [10]: -0.902
Sequence: RSYVNPAYSFTFDSKA [SeqSFB3_Lachancea_meyersii]

Sequence: RTLINPSVAFLYMGSR [SeqRBM_5357]
Chip Fluorescence (max) [7]: 1.016
Chip Fluorescence (mean) [8]: -0.7287

Chip Fluorescence (max) [3]: -0.6014
Chip Fluorescence (mean) [4]: -1.251
Sequence: RTNLNPFFFFTSDSKN [SeqRBM_2819]

Chip Fluorescence (max) [3]: 0.1527
Chip Fluorescence (mean) [4]: -0.8232
Sequence: RTPGTALLTLRGHKKQ [SeqRBMlowT_5808]

Chip Fluorescence (max) [11]: 2.997
Chip Fluorescence (mean) [12]: 0.7866
Sequence: RTPGTFLLTLRGHKKQ [SeqRBMlowT_7783]

Chip Fluorescence (max) [9]: 1.729
Chip Fluorescence (mean) [10]: 0.4598
Sequence: RTPGTFPLTLKGHKKQ [SeqRBMlowT_6382]

Chip Fluorescence (max) [1]: 4.819
Chip Fluorescence (mean) [2]: 0.7359
Sequence: RTRRISPLFDNPNSKQ [Seqshuffled_9774]

Chip Fluorescence (max) [9]: 1.359
Chip Fluorescence (mean) [10]: -0.5299
Sequence: RTYINPFMKFTIWGTQ [SeqRBM_6386]

Chip Fluorescence (max) [11]: 2.5867
Chip Fluorescence (mean) [12]: 0.5553
Sequence: RTYINPFMQFTDGGRF [SeqRBMlowT_552]

Sequence: RTYINPFVTFVDGGNK [SeqRBMlowT_3664]
Chip Fluorescence (max) [3]: 0.3337
Chip Fluorescence (mean) [4]: -0.6971

Sequence: RTYMNPFASFLDHSHR [SeqSFB3_Pseudocercospora_musae]
Chip Fluorescence (max) [7]: 1.14
Chip Fluorescence (mean) [8]: -0.1201

Chip Fluorescence (max) [3]: 0.1768
Chip Fluorescence (mean) [4]: -0.8782
Sequence: RVLECPSIRITSISPT [SeqNFATC4_Homo_sapiens]
